Experimental findings from ChEMBL document CHEMBL3259781 (J Med Chem, 2014) are described below.

Bounds are passed on as bounds.

Test [1] concerns the target T1, Adenosine receptor A3 (Homo sapiens, UniProt P0DMS8).
T1 sequence (P0DMS8 whole entry): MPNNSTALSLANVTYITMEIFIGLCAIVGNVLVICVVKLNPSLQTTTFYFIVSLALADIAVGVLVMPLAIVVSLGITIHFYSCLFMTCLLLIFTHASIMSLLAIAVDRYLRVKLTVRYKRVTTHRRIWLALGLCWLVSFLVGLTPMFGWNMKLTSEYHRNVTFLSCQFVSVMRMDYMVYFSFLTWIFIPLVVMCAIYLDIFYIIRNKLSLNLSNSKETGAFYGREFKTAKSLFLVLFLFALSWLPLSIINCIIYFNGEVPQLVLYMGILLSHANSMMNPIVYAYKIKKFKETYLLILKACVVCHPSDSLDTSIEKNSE

Test [2] addresses T2, Adenosine receptor A2a (Homo sapiens, UniProt P29274).
The species entered for test [3] is Homo sapiens. Description: Selectivity ratio of Ki for human recombinant adenosine A1 receptor to Ki for human recombinant adenosine receptor A2a.
For test [4], the target named is T3, Adenosine receptor A1 (Homo sapiens, UniProt P30542).
T3 sequence (P30542 whole entry): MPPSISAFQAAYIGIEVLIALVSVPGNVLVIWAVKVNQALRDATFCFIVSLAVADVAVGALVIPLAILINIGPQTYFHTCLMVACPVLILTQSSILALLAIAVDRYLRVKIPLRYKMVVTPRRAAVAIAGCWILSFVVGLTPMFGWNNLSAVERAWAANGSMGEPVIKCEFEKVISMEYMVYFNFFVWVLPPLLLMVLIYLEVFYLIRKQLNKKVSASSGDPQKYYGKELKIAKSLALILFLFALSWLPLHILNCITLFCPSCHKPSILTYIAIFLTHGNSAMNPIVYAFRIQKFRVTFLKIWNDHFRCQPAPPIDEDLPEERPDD

Test [5] concerns Mus musculus. The test can be described thus: Anticataleptic activity in po dosed mouse assessed as inhibition of haloperidol-induced catalepsy. In kind it is functional.
The test system of test [6] is Mus musculus. Description: Anticataleptic activity in mouse assessed as inhibition of CGS21680-induced catalepsy at 10 mg/kg, po. Type of test: functional.
The target of test [7] is T4, Adenosine receptor A2b (Homo sapiens, UniProt P29275).
T4 sequence (P29275 whole entry): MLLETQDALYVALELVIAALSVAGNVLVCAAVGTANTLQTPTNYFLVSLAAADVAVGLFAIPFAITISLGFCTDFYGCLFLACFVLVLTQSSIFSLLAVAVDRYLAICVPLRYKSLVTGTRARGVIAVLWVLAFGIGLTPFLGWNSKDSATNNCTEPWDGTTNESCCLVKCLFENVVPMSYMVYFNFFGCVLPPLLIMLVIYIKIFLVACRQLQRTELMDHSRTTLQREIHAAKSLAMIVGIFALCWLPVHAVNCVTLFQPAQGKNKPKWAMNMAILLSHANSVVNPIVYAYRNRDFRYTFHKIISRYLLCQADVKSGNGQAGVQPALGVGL

For test [8], the target named is T1, Adenosine receptor A3. Description: Binding affinity to human recombinant adenosine A3 receptor.
In test [9] the target is T3, Adenosine receptor A1. The source holds these as a separate data set.
Test [10] is filed under the species Rattus norvegicus. Description: Selectivity ratio of Ki for rat striatal adenosine A1 receptor to Ki for rat recombinant adenosine receptor A2a.
The subject of test [11] is Rattus norvegicus. Description: Anticataleptic activity in rat assessed as inhibition at 1 mg/kg, po after 4 hrs. Type of test: functional. The following applies: Rattus norvegicus, po, 4 h.
The test system of test [12] is Rattus norvegicus. The test can be described thus: Anticataleptic activity in rat assessed as inhibition at 1 mg/kg, po after 1 hr. Type of test: functional. The following applies: Rattus norvegicus, po, 1 h.
The target of test [13] is T2, Adenosine receptor A2a. The source holds these as a separate data set.

T2 sequence (P29274 whole entry): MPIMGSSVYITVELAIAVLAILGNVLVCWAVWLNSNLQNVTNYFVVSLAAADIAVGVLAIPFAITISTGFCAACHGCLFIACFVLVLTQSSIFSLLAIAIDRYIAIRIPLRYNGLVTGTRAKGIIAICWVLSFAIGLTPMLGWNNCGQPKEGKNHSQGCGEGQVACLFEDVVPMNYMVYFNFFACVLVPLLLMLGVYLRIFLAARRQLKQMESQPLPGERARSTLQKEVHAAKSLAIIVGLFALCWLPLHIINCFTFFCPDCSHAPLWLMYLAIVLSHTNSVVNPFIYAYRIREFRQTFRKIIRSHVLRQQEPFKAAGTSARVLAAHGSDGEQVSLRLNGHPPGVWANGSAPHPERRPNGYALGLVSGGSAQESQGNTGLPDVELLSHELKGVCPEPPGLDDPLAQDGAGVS

The Ki is a measure of affinity in units of concentration, obtained from inhibition or displacement. The compound `Nc1nc(NCCc2ccc(O)cc2)nc2nc(-c3ccco3)nn12` [ZM-241385] had a Ki in [1] of more than 10000 nM.

On to `COc1ccc(C2CCOCC2)c2oc(NC(=O)c3ccnc(N4CCOCC4)c3)nc12`, for which the Ki in [2] came out at 25 nM; in test [4] it was 8780 nM. Moreover, the Ratio Ki in [3] amounted to 351.

By ED50 is commonly meant the dose at which the effect has come halfway, by size or by number of responders. Turning to `Nc1nc(-c2ccccc2)c2c(n1)-c1cc(OCCN3CCOCC3)ccc1C2=O`, the ED50 in test [5] is 0.3 mg/kg.

As to `CC1(C)CCCN(c2nnc(N)nc2-c2ccccc2)C1`, the Ratio Ki in test [3] was 245. In addition, the Ki in test [4] was 10000 nM.

`COCCOc1ccc(N2CCN(CCn3cnc4c3nc(N)n3nc(-c5ccccn5)nc43)CC2)cc1`: the Ratio Ki in test [3] came to 108. The compound also registered a Ki in [4] of 1360 nM.

`CN(C)CCn1ncc2c1nc(N)n1c(=O)n(Cc3cccc(Cl)c3)nc21`: the Ratio Ki in [3] is 269. The compound also returned a Ki in [4] of 1400 nM.

As for `Nc1nc2c(cnn2CCN2CCOCC2)c2nn(Cc3cccc(Cl)c3)c(=O)n12`, in [3], the Ratio Ki was 99. This compound also returned a Ki in [4] of 1400 nM.

Broadly, the inhibition in vivo is the relative decrease from the control value, in per cent. On to `COc1ccc(N2CCOCC2)c2cc(C(=O)Nc3ccncc3)oc12`, for which the inhibition in vivo at 10 mg/kg in test [6] turned out to be 76%.

For the compound `COC(=O)Nc1cc2c(-c3ccccc3)ccc(OC)c2o1`, the inhibition in vivo at 10 mg/kg in [6] stood at 86%.

`O[C@H](c1cc(C(F)(F)F)nc2c(C(F)(F)F)cccc12)[C@@H]1CCCCN1` [(R,S)-MEFLOQUINE]: the Ki in test [7] is 7070 nM.

In the case of `CC(=O)Nc1cc(-n2cccn2)nc(-c2ccco2)n1`, in [3], the Ratio Ki worked out at 17. This compound displayed a Ki in test [4] of 10.2 nM.

Take `CC1CN(c2nnc(N)nc2-c2ccccc2)CC(C)O1` (configuration not stated): the Ratio Ki in test [3] was 617. Also, in test [4], the Ki was 10000 nM.

For the compound `CCNC(=O)[C@H]1O[C@@H](n2cnc3c(N)nc(C#CC[C@H]4CC[C@H](C(=O)OC)CC4)nc32)[C@H](O)[C@@H]1O` [APADENOSON], the values for the Ki in test [8] and in test [9] were 45 nM and 77 nM, respectively.

With `Nc1nc(-c2ccco2)c2c(n1)-c1ccccc1C2=O`, in [5], the ED50 is 5 mg/kg.

Take `Nc1nnc(-c2ccccc2)c(-c2ccccc2)n1`: the Ki in test [4] worked out at 270 nM.

With `CC(O)(C#Cc1cn2nc(-c3ccco3)nc2c(N)n1)c1ccccc1` (configuration not stated), the Ratio Ki in [10] stood at 3.4.

As for `COCCOc1ccc(N2CCN(CCn3cnc4c3nc(N)n3nc(-c5ccco5)nc43)CC2)cc1`, the Ratio Ki in [3] is 669. For the same compound, the inhibition in vivo at 1 mg/kg in test [11] turned out to be 50%; in test [12], 55%. In addition, the affinity in [4] corresponds to a Ki of 602 nM.

As to `CCn1c(=O)c2c(nc(/C=C/c3ccc(OC)c(OC)c3)n2C)n(CC)c1=O` [ISTRADEFYLLINE], the Ki in [1] is more than 3000 nM.

Take `Nc1nc(Cl)nc2c1ncn2[C@@H]1O[C@H](CO)[C@@H](O)[C@H]1O`: the Ki in test [13] stood at 180 nM; in test [8] it was 19 nM; in test [9], 1.39 nM.

On to `Nc1nc(-c2ccco2)c2ncn(C(=O)NCc3ccccc3)c2n1`, for which the Ki in [1] stood at 1470 nM; in test [7] it was 112 nM.

In the case of `COc1cnc(N2CCOCC2)c2sc(NC(=O)c3ccc(F)cc3)nc12`, the Ki came to 5 nM in [2] and 2100 nM in [4]. Moreover, the Ratio Ki in test [3] was 420.

In the case of `Nc1nc(-c2ccccc2)c2c(n1)-c1cc(NCCN3CCOCC3)ccc1C2=O`, in test [5], the ED50 was less than 0.1 mg/kg.

On to `CC(O)CCc1nc(N)c2nc(-n3nccn3)n(C)c2n1` (configuration not stated), for which the Ratio Ki in test [3] was determined as 3. Also, the affinity in [4], expressed as Ki, was 24 nM.

`Nc1nc(-c2ccco2)c2ncn(C(=O)NCc3ccco3)c2n1`: the figures for the Ki in test [1], in test [2] and in [7] were 1930 nM, 1.7 nM and 141 nM, respectively.

For the compound `CCCCc1nc(N)c2nc(-n3nccn3)n(C)c2n1` [ST1535], the Ki is more than 10000 nM in test [1] and 79.2 nM in [4]. Further, in [3], the Ratio Ki was 12.

With `CC(=O)CCc1nc(N)c2nc(-n3nccn3)n(C)c2n1`, the Ratio Ki in [3] is 16. This compound displayed a Ki in [4] of 192 nM.

Turning to `CN(CCN1CCN(c2ccc(F)cc2F)CC1)c1cc2nc(-c3cccc(C#N)c3)nn2c(N)n1`, in test [3], the Ratio Ki was 620. For the same compound, the Ki in test [4] came out at 1120 nM.

Regarding `Cc1cc(C)n(-c2cc(NC(=O)CN3CCN(C)CC3)nc(-c3nccs3)n2)n1`, in [3], the Ratio Ki worked out at 222.
